As usually defined, the Kd is the equilibrium constant for the complex coming apart.

Here are results for four compounds from US11953435B2, “Zinc-responsive fluorophores” (Northwestern University, priority 2019, dated 2024).

This assay can be described thus: Zinc dissociation constant, fluorescence titration in buffered EGTA-zinc solution. Format: binding. Particulars: for Kd: 200 nM probe, 50 mM HEPES, 0.1 M KNO3, pH 7.2, 10 mM EGTA; for affinity for zinc (in words): compared to other probes. The method, then: Aqueous solutions were prepared by using de-ionized water with resistivity […], obtained using a Milli-Q water purification system. In order to properly compare the photophysical properties of ZincBY-2, ZincBY-3, and ZincBY-4 to ZincBY-1, the photophysical properties of ZincBY-1 we remeasured. […] Stock solutions of ZincBY-1, ZincBY-2, ZincBY-3, and ZincBY-4 were prepared at concentrations of 5 mM and stored at −20° C. in aliquots that were used immediately after thawing for each experiment. Unless otherwise stated, all spectroscopic methods were conducted in aqueous buffer containing 50 mM HEPES (pH 7.2) and 0.1 M KNO3. UV-visible spectra were acquired on a PerkinElmer Lambda 650 UV/Vis spectrophotometer using quartz cuvettes from Starna (1 cm path length, 10 cm path length used in extinction coefficient and quantum yield determination). Fluorescence spectra were acquired using a PerkinElmer LS 55 fluorescence spectrophotometer. For measurements containing zinc, 99.0% ZnNO3 hexahydrate (final concentration 5 μM) was used. For experiments analyzing apo probes, N,N,N′,N′-Tetrakis(2-pyridylmethyl)ethylenediamine (TPEN) (final concentration 5 μM) was added to solution. Quantum Yield and Extinction Coefficient Determination. Quantum yields for apo and holo ZincBY-1, ZincBY-2, ZincBY-3, and ZincBY-4 were determined by plotting absorbance vs. fluorescence intensity of solutions containing ZincBY-1, ZincBY-2, ZincBY-3, or ZincBY-4 at probe concentrations ranging from 50-250 nM. Serial dilution was used to make solutions at different concentrations. Fluorescein dissolved in 0.1 N NaOH was used as the quantum yield standard, using a literature-determined quantum yield of 0.95.^3 For all fluorophore solutions, fluorescence excitation was set at 490 nm and fluorescence emission was integrated from 510 nm to 650 nm. Zinc Dissociation Constant. Fluorescence spectra were recorded using zinc probes (ZincBY-1, ZincBY-2, ZincBY-3, or ZincBY-4; 200 nM) and ZnSO4 (various concentrations). The solutions were equilibrated in the dark for 1 h prior to measurement. The concentration of ZnSO4 was varied from 1 μM to 9 mM in buffer solution (50 mM HEPES and 0.1 M KNO3, and pH 7.2) containing 10 mM EGTA. Free Zn^2+ was calculated according to a previously reported method (Ref. B4; incorporated by reference in its entirety). Data was fit to the following one-site binding equation: F=(FminKd+Fmax[Zn^2+])/(Kd+[Zn^2+]) pH Response. The fluorescence spectra of zinc probes (ZincBY-2, ZincBY-3, or ZincBY-4; 200 nM) wasere measured at various pH values (4.5-11). The following buffers were used at 50 mM concentration with 0.1 M KNO3: NaOAc/AcOH (pH 4.0-4.5), MES (pH 5.0-6.5), HEPES (pH 7.0-8.0), CHES (pH 8.5-9.5), CAPS (pH 10.0-11.0). Metal Ion Response. The fluorescence spectra of zinc probes (ZincBY-2, ZincBY-3, or ZincBY-4; 200 nM) were measured in the presence an excess of metal ion including 1 mM KNO3, 1 mM NaNO3, 1 mM CaSO4, 1 mM MgSO4, 15 μM MnSO4, 15 μM (NH4)2Fe(SO4)2, 15 μM NH4Fe(SO4)2, 15 μM CoSO4, 15 μM NiSO4, 15 μM CuSO4, 15 μM [Cu(CH3CN)4]PF6, 15 μM CdSO4, 15 μM Hg(NO3)2, 15 μM Pb(NO3)2, or 15 μM ZnSO4. The fluorescence spectra were compared to that of ZincBY-2 (200 nM), ZincBY-3 (200 nM), or ZincBY-4 (200 nM) in the presence of 10 μM TPEN. Determination of octanol-water partition coefficients (log P). A log P value for each probe was determined by agitating nanomolar solutions of each probe in a 1:1 mixture of HEPES buffer and 1-octanol. Solutions were allowed to settle for 1 h and then the fluorescence intensity of each phase was measured. Standard curves of the fluorescence of known concentrations of probes in both solutions were used to determine concentrations.

`COc1ccc2n1[B-](F)(F)[N+]1=C(N(CCN(Cc3ccccn3)Cc3ccccn3)Cc3ccccn3)C=CC1=C2c1c(C)cc(C)cc1C` [ZincBY-1, reference compound]: binding was put at a Kd of 3.72 ± 0.87 nM.
In the case of `Cc1cc(C)c(C2=C3C=CC(OCCN=[N+]=[N-])=[N+]3[B-](F)(F)n3c2ccc3N(CCN(Cc2ccccn2)Cc2ccccn2)Cc2ccccn2)c(C)c1` [ZincBY-2, N1-(7-(2-azidoethoxy)-5,5-difluoro-10-mesityl-5H-4λ4,5λ4-dipyrrolo[1,2-c:2′,1′-f][1,3,2]diazaborinin-3-yl)-N1,N2,N2-tris(pyridin-2-ylmethyl)ethane-1,2-diamine], binding was characterised by a dissociation constant (Kd) of 18.1 ± 2.6 nM. In addition, under “relative to ZincBY-1”, the “affinity for zinc weaker than that of ZincBY-1” value was “five-fold weaker”.
In the case of `Cc1cc(C)c(C2=C3C=CC(OCCN)=[N+]3[B-](F)(F)n3c2ccc3N(CCN(Cc2ccccn2)Cc2ccccn2)Cc2ccccn2)c(C)c1` [ZincBY-3, N1-(7-(2-aminoethoxy)-5,5-difluoro-10-mesityl-5H-4λ4,5λ4-dipyrrolo[1,2-c:2′,1′-f][1,3,2]diazaborinin-3-yl)-N1,N2,N2-tris(pyridin-2-ylmethyl)ethane-1,2-diamine], the Kd amounted to 0.0977 ± 0.0261 nM and the “affinity for zinc (in words)” value was “sub-nanomolar”. Further, where the note is “relative to ZincBY-1”, the “affinity for zinc higher than that of ZincBY-1” value is reported as 38 fold.
With `CC(=O)NCCOc1ccc2n1[B-](F)(F)[N+]1=C(N(CCN(Cc3ccccn3)Cc3ccccn3)Cc3ccccn3)C=CC1=C2c1c(C)cc(C)cc1C` [ZincBY-4, N-(2-((7-((2-(bis(pyridin-2-ylmethyl)amino)ethyl)(pyridin-2-ylmethyl)amino)-5,5-difluoro-10-mesityl-5H-5λ4,6λ4-dipyrrolo[1,2-c:2′,1′-f][1,3,2]diazaborinin-3-yl)oxy)ethyl)acetamide], the Kd amounted to 0.229 ± 0.0184 nM and the “affinity for zinc (in words)” value was “sub-nanomolar”.
